Entries after “also recorded” stand apart in the source; their conditions may differ.
Test system: FANCD2 foci and γH2AX in U2OS cells
Test: High-throughput high content indirect immunofluorescence (FANCD2 foci, γH2AX)
Assay type: cell-based
Settings: for γH2AX positive cells / γH2AX levels: CU1 200 μM or CU2 500 μM in combination with HU (2.5 mM, 8 h) or cisplatin (10 μM, 8 h); for H2AX positive nuclei, Experiment 1 / H2AX positive nuclei, Experiment 2 / H2AX positive nuclei, Experiment 3: CU1 200 μM, raw data; for H2AX positive nuclei, Experiment 1 / H2AX positive nuclei, Experiment 2 / H2AX positive nuclei, Experiment 3 / H2AX positive nuclei, Totals: CU2 500 μM, HU 2.5 mM 8 h, cisplatin 10 μM 8 h; for number of FANCD2 foci per cell: 8 h, CU1 200 μM or CU2 500 μM; for H2AX positive nuclei, Totals: sum of experiments 1-3, CU1 200 μM
Procedure: In response to DNA damage, mUb-FANCD2 accumulates at sites of DNA lesions to form foci, promote DNA-damage sensing, activate cell-cycle checkpoints, and promote DNA repair.[23] Therefore, we employed high-throughput high-content indirect immunofluorescence studies to examine the effect of CU1 and CU2 on mUb-FANCD2 focus formation. The experimental format used was similar to the immunoblot-based experiments, excepting that, following treatment with HU (2.5 mM for 8 h) or cisplatin (10 μM for 8 h), cells were fixed, permeabilized and stained with specific FANCD2 primary and fluorescent secondary antibodies. In addition to monitoring mUb-FANCD2 foci, γH2AX was evaluated as a marker of DNA damage induction, and cell nuclei were visualized by 4′,6-diamidino-2-phenylindole (DAPI) staining. […] These observations are in accord with the immunoblot-based experiments wherein reductions in mUb-FANCD2 were observed (Figure 3a).
Figure 4 Further cell-based assays with CU1 and CU2: (a, b) Representative immunofluorescence images of U2OS cells treated with HU (2.5 mM, 8 h) or cisplatin (10 μM, 8 h) in the presence or absence of CU1 (200 μM) or CU2 (500 μM). (c) Quantification of the number of FANCD2 foci in cells treated as in panels (a) and (b). Data accumulated over three independent experiments, each consisting of three technical replicas. (d) IncuCyte analysis of U2OS cells treated with or without carboplatin (15 μM) and CU2 (250 μM). Mean calculated from three wells, four images per well. (HU = DMSO + HU, cisplatin = DMSO + cisplatin). […]
buffer (1 hour at room temperature) followed by three washes with PBST. Cells were then counterstained with DAPI (25 µg/mL) and mounted using Vectashield […]
High-throughput high content indirect immunofluorescence. U2OS cells, seeded in a 96-well plate, were treated with compound for 1 hour followed by 2.5 mM HU or 10 µM cisplatin for 8 hours. Cells were washed 3 times with wash buffer (1xPBS, 0.1% Tween-20) before being fixed in 2% paraformaldehyde (w/v) for 20 minutes at 23 °C. The cells were then washed a further 3 times in wash buffer before being stored overnight at 4°C in the final wash. Next day, the cells were permeabilized using 1xPBS, 0.5% Triton X-100 for 15 minutes at 23 °C and then washed 3 times with wash buffer before blocking with 5% BSA in 1xPBS, 0.1% Tween-20 for 30 minutes at 23 °C. After washing 3 times with wash buffer, the cells were incubated for 1 hour at 23 °C in the presence of primary antibodies (1:50 FANCD2, Santa Cruz, mouse monoclonal and 1:250 γH2AX, Cell Signalling, rabbit) in 5% BSA in wash buffer. After incubation in the presence of primary antibodies, the cells were washed 3 times with wash buffer before being incubated with secondary antibodies in 5% BSA in wash buffer for 1 hour in the dark at 23 °C. The secondary antibodies used were goat anti-mouse AlexaFluor 488 and goat anti-rabbit AlexaFluor 594 (both from Molecular Probes, Invitrogen). The cells were then washed a further 3 times with wash buffer before being stained in the presence of 2 µg/ml DAPI (Sigma D9542) in wash buffer for 10 minutes in the dark at 23 °C. After DAPI staining, the cells were washed 3 more times with wash buffer and stored in the final wash until ready for imaging.
A spinning-disk Opera PhenixTM (Perkin Elmer) microscope equipped with a 40x water immersion objective was employed to acquire 10 confocal images for each well in a single optimized focal plane comprising three fluorescence channels: 405, 488 and 568 nm for DAPI, Alexa Fluor 488 and Alexa Fluor 594, respectively. Image analysis and evaluation was done using Harmony High-Content Imaging and Analysis software. DAPI staining (405 nm) was used to segment nuclei, which were further gated for the presence of γH2AX staining

[1] = in the presence of HU 2.5 mM, relative to HU alone
[2] = in the presence of cisplatin 10 μM, relative to cisplatin alone

| SMILES | γH2AX positive cells / γH2AX levels | H2AX positive nuclei, Experiment 1 | H2AX positive nuclei, Experiment 2 | H2AX positive nuclei, Experiment 3 | number of FANCD2 foci per cell [1] | number of FANCD2 foci per cell [2] | H2AX positive nuclei, Totals |
| --- | --- | --- | --- | --- | --- | --- | --- |
| CCN1CCN(c2cc(C)nc3nc(CN4CCCCC4C)nn23)CC1 (centres unmarked) [CU2] | no reduction in γH2AX positive cells; also recorded: do not significantly affect | 56 | 303 | 79 | clear reduction in the number of FANCD2 foci per cell | clear reduction in the number of FANCD2 foci per cell | 438 |
| NCCN1C(=O)CC[C@H]2CN(Cc3cccc(-c4ccco4)c3)CC[C@H]21 [CU1] | no reduction in γH2AX positive cells; also recorded: do not significantly affect | 40 | 279 | 126 | clear reduction in the number of FANCD2 foci per cell | clear reduction in the number of FANCD2 foci per cell | 445 |

— article PMC6804243, “Small-Molecule Inhibition of UBE2T/FANCL-Mediated Ubiquitylation in the Fanconi Anemia Pathway” (ACS Chemical Biology, 2019)
